Here are results for two compounds from US9913838B2, “Methods of treating cancer using compositions comprising perillyl alcohol derivative” (NEONC TECHNOLOGIES INC., priority 2010, dated 2018).

For data set [1], the system named is MDA-MB-231. The data set is described as follows: cells. The settings on record: for reduction of colony formation: 10 μM (each), 48 hours; for IC50: Homo sapiens, MDA-MB-231, 48 h, read-out: IC50 (concentration required to decrease colony formation by 50%). Here is the method: (§1) Depending on the cell line (and plating efficiency), 200-350 cells were seeded into each well of a 6-well plate. […] Thereafter, the drugs were removed, fresh growth medium was added, and the cells were kept in culture undisturbed for 12-16 days, during which time the surviving cells spawned colonies of descendants. Colonies (defined as groups of >50 cells) were visualized by staining for 4 hours with 1% methylene blue (in methanol), and then were counted.
In the case of O6-BG treatment, cells were pretreated with 10 μM O6-BG for one hour before addition of TMZ or TMZ-POH. After 24 hours, another 10 μM O6-BG was added to the medium. Another 24 hours later, drug-laced medium was removed, and fresh medium without drugs was added. Thereafter, cells remained undisturbed until staining with methylene blue.
(§2) The cytotoxic potency of TMZ-POH, was analyzed by colony formation assay (CFA) in a variety of human breast cancer cell lines and compared to the cytotoxicity of TMZ. We used estrogen receptor positive cells MCF7 and T47D, the triple-negative lines MDA-MB-231, MDA-MB-468, and HCC-1937, and a brain-seeking variant of the 231 cell line, MDA-MB-231-br.
Thus, we tested whether simply mixing the two compounds TMZ and POH could mimic the effects of the TMZ-POH conjugate. MDA-MB-231 cells were treated with the individual compounds (TMZ-POH, TMZ or POH) alone, or with an equimolar mix of TMZ plus POH, and cell survival was analyzed by CFA.

In data set [2] the test system is USC-02 glioma cancer stem cells. The data set is described as follows: MTT cytotoxicity assay, USC-02 glioma cancer stem cells. It is filed as cell-based. The source says:
(§3) Cancer Lett. 2011 Mar. 28; 302(2):100-8.
(In general: Formazan colour is commonly taken as a measure of viable cells.)

In data set [3] the test system is A172 human glioma cells. The data set can be described thus: MTT cytotoxicity assay, A172 glioma cells. As to conditions: A172; result in words. From the text:
In vitro efficacy of the present composition can be determined using methods well known in the art. For example, the cytoxicity of the present monoterpene (or sesquiterpene) and/or the therapeutic agents may be studied by MTT [3-(4,5-dimethylthiazol-2-yl)-2,5-diphenyl tetrazolium bromide] cytotoxicity assay. MTT assay is based on the principle of uptake of MTT, a tetrazolium salt, by metabolically active cells where it is metabolized into a blue colored formazon product, which can be read spectrometrically. J. of Immunological Methods 65: 55 63, 1983. The cytoxicity of the present monoterpene (or sesquiterpene) derivative and/or the therapeutic agents may be studied by colony formation assay. Functional assays for inhibition of VEGF secretion and IL-8 secretion may be performed via ELISA. Cell cycle block by the present monoterpene (or sesquiterpene) derivative and/or the therapeutic agents may be studied by standard propidium iodide (PI) staining and flow cytometry. Invasion inhibition may be studied by Boyden chambers. In this assay a layer of reconstituted basement membrane, Matrigel, is coated onto chemotaxis filters and acts as a barrier to the migration of cells in the Boyden chambers. Only cells with invasive capacity can cross the Matrigel barrier. Other assays include, but are not limited to cell viability assays, apoptosis assays, and morphological assays.
First cytotoxicity assays were carried out after cells were treated with dimethyl-celecoxib (DMC) alone.
Then U87, A172 and U251 cells were treated with dimethyl celecoxib bisPOH carbamate (POH−DMC) (e.g., synthesized by the method in Example 1), and the MTT cytotoxicity assays performed (FIG. 2).
First cytotoxicity assays were carried out after cells were treated with temozolomide (TMZ) alone, the standard alkylating agent used in the treatment of malignant gliomas.
Then TMZ-resistant glioma cell lines U87, A172 and U251 cells were treated with TMZ-POH (e.g., synthesized by the method in Example 3).
To compare the cytotoxicity of Rolipram POH Carbamate (POH-Rolipram) (e.g., synthesized by the method in Example 5) with rolipram, […] inducing differentiation and apoptosis in glioma cells, A172, U87, U251 and LN229 human glioma cells were treated with either POH-Rolipram or rolipram for 48 hours.

Data set [4] has as its system normal astrocytes. The data set is described as follows: MTT cytotoxicity assay, normal astrocytes. The data set is classed as cell-based. As to conditions: in words.
Excerpt: as §3

The subject of data set [5] is TMZ resistant cells (U251TR). The data set is described as follows: MTT cytotoxicity assay, U251TR cells. The settings on record: in words. It is filed as cell-based, human.
Excerpt: as §3

The test system of data set [6] is HCC-1937. The data set can be described thus: Colony formation assay, HCC-1937. The data set is classed as cell-based, human. As to conditions: for IC50: Homo sapiens, HCC1937, 48 h, read-out: IC50 (concentration required to decrease colony formation by 50%). How it is done:
as §1, §2

Data set [7] concerns TMZ sensitive (U251) cells. The data set can be described thus: Colony forming assay, TMZ sensitive U251 cells. The data set is classed as cell-based, human. The settings on record: in words. How it is done: Colony forming assays were carried out after cells were treated with TMZ alone, POH alone, and the TMZ-POH conjugate. […] Cancer Lett. 2011 Mar. 28; 302(2):100-8.
The test system of data set [8] is D3H2LN cells implanted into the brains. The data set can be described thus: Intracranial breast cancer tumor model in nude mice. As to conditions: for median survival: TMZ-POH s.c., TMZ via gavage. The data set is classed as in vivo. From the text: In FIG. 27A, all surviving animals were imaged again on days 21, 28, and 36. […] Arrow labeled Rx indicates the time period of treatment.
All animal protocols were approved by the Institutional Animal Care and Use Committee (IACUC) of University of Southern California, and all rules and regulations were followed during experimentation on animals. Athymic mice (Harlan, Inc., Indianapolis, Ind.) were implanted intracranially with 2×10^5 cells. A subline of MDA-MB-231 cells called D3H2LN was used, which was transfected with the firefly luciferase gene and had been selected for aggressive growth and metastasis in vivo. Ten days after intracranial implantation, efficient tumor take was confirmed in all animals via non-invasive whole-body bioluminescent imaging. For this purpose, mice were intravenously injected with 50 mg/kg D-Luciferin (Perkin Elmer, Waltham, Mass.) and imaged using the Xenogen IVIS-200 Imaging System (Caliper/Perkin Elmer). Images were analyzed by region-of-interest (ROI) analysis using the Living Image software package (Caliper/Perkin Elmer) to quantitate light output (radiance, i.e., photons per second per square centimeter per steradian).
Group 1 was the control group that received vehicle only (45% glycerol, 45% ethanol, 10% DMSO) via subcutaneous injection. Group 2 was the experimental group that received 25 mg/kg TMZ-POH via subcutaneous (s.c.) injection. Group 3 was the comparison group and animals received 25 mg/kg TMZ via gavage. Treatment was once per day for a period of 10 days (i.e., 10 treatments total). Thereafter, all surviving animals were imaged again, once per week.
We used D3H2LN cells, which are a bioluminescent variant of the MDA-MB-231 cell line with aggressive tumor growth in mice. These cells were implanted into the brains of nude mice, and 10 days later all animals were imaged for luciferase expression in order to confirm efficient tumor take.
Animals were distributed into three groups and treated once daily for 10 days with vehicle alone (control), 25 mg/kg TMZ-POH, or 25 mg/kg TMZ.

The subject of data set [9] is CHOP. The data set can be described thus: Western blot of ER stress in TMZ sensitive and resistant U251 glioma cells. It is filed as cell-based, human. How it is done:
Western blots were performed after TMZ sensitive and resistant glioma cells were treated with the TMZ-POH conjugate for 18 hr.

Where [10] appears, read: 25 mg/kg once daily for 10 days.

“Also recorded” adds a separate entry of the source.

Regarding `C=C(C)[C@@H]1CC=C(COC(=O)NC(=O)c2ncn3c(=O)n(C)nnc23)CC1` [TMZ-POH], in data set [1] (MDA-MB-231), the “reduction of colony formation” value was “about 95%”. For the same compound, the figures for the IC50 in [1], in data set [2] (read-out: cytotoxicity with 1050) and in data set [6] were 2.3 µM, 60 µM and 31 µM, respectively. Further, the “Differential (−fold)” value is reported as 4.3 −fold in [1] (fold increase in potency of TMZ-POH compared to TMZ, MDA-MB-231) and 6.0 −fold in data set [6] (fold increase in potency of TMZ-POH compared to TMZ, HCC-1937). Besides, the “cytotoxicity (MTT assay)” value in data set [3] was “substantially higher kill rates”; in [4], “not towards normal astrocytes; also recorded: did not induce significant cytotoxicity”; in data set [5] it was “demonstrated cytotoxicity”. The “colony formation (CFA)” value in data set [6] (low micromolar concentrations, 48 hours, in words) is “prevented colony formation”. The “cytotoxicity (colony forming assay)” value in data set [7] is given as “demonstrated cytotoxicity; also recorded: substantially greater potency compared to POH alone”. For the same compound, in data set [8] (setting [10]), the “additional survival after the termination of treatment” value came to 30 days. Also, the median survival in [8] (setting [10]) is listed as 50 days. Besides, in [8] (25 mg/kg once daily for 10 days, in words), the “status of animals by day 36” value is given as “still alive with no obvious signs of distress”. Besides, the “bioluminescent imaging after 10-day treatment period” value in [8] (25 mg/kg once daily, in words) is given as “only small changes in radiance”. Besides, the “increase of ROI radiance” value in data set [8] (between days 10 and 21, representative mouse, 25 mg/kg once daily 10 days) was determined as 1.7 fold. The ROI radiance in data set [8] (day 10, representative mouse) is listed as 1.11E7 photons per second per square; in data set [8] (day 21, representative mouse), 1.92E7 photons per second per square; in data set [8] (day 43, representative mouse) it was 1.88E8 photons per second per square. In addition, in data set [9] (18 hr treatment), the “concentration at which activation of the proapoptic protein CHOP was shown (as low as)” value is 60 µM. For the same compound, the “ER stress (ERS)” value in [9] (TMZ sensitive and resistant U251, 18 hr, in words) is given as “induces ER stress”.

As to `Cn1nnc2c(C(N)=O)ncn2c1=O` [TMZ, temozolomide, reference compound], the “reduction of colony formation” value in data set [1] (MDA-MB-231) is listed as “about 50%”. Further, the IC50 was determined as 9.9 µM in data set [1] and 186 µM in data set [6]. The “cytotoxicity (MTT assay)” value in [2] (TMZ 0-400 uM, POH 0-2 mM, in words) was “did not induce significant cytotoxicity”; in [3], “minimal cytotoxicity”. The “cytotoxicity (colony forming assay)” value in data set [7] is listed as “demonstrated cytotoxicity”. For the same compound, the “additional survival after the termination of treatment” value in data set [8] (setting [10]) was found to be 8 days. The median survival in [8] (setting [10]) was determined as 28 days.
